In patent US8637501B2, “Azinone-substituted azepino[b]indole and pyrido-pyrrolo-azepine MCH-1 antagonists, methods of making, and use thereof” (Albany Molecular Research, Inc., priority 2009, dated 2014):

How the values were obtained:
human MCH-1 receptor = human MCH-1 receptor (Homo sapiens (Human), UniProt Q99705); experiment: Binding Assay for Human Melanin-Concentrating Hormone (MCH-1) Receptor; details: radioligand displacement, membranes from CHO-K1 cells expressing human MCH-1 receptor; Ki from IC50 by Cheng Prusoff equation; read-out: MCH1 Ki
Summary of the method: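 Membranes from CHO-K1 cells stably expressing human MCH-1 incubated 60 min at 25 °C with 1.4 nM tritiated indazolyl-pyridinone radioligand in 50 mM Tris-HCl pH 7.4. Bound counts by filtration and scintillation; IC50 and nH by Hill fit, Ki by Cheng–Prusoff.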

human MCH-1 receptor, sequence (Q99705 whole entry): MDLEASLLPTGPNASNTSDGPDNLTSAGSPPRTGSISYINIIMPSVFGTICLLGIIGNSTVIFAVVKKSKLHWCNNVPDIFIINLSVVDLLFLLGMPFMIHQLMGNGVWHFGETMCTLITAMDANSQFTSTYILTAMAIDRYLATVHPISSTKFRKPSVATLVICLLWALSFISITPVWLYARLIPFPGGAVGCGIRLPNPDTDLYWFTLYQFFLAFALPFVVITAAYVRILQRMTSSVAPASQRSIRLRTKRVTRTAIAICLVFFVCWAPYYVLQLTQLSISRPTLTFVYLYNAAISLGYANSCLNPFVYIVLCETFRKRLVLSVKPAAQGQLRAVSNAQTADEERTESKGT

| Structure (SMILES) | Ki (human MCH-1 receptor) | melting point |
| --- | --- | --- |
| Cl.Cn1c2c(c3ccc(-n4ccc(OCc5ncc(Cl)cc5Cl)cc4=O)cc31)CCNCC2 [Example 56, 4-((3,5-Dichloropyridin-2-yl)methoxy)-1-(6-methyl-1,2,3,4,5,6-hexahydroazepino[4,5-b]indol-8-yl)pyridin-2(1H)-one hydrochloride] | 0.027 µM | 178 to 180 °C |
| CN1CCCc2c(c3ccc(N4CCN(CCc5ccc(F)cc5)CC4=O)cc3n2C)C1.Cl [Example 74, 1-(2,6-Dimethyl-1,2,3,4,5,6-hexahydroazepino[4,3-b]indol-8-yl)-4-(4-fluorophenethyl)piperazin-2-one hydrochloride] | 0.01 µM | 211 to 220 °C |
| Cl.O=c1cc(-c2ccc(C(F)(F)F)cn2)ccn1-c1ccc2c3c([nH]c2c1)CCCNC3 [Example 36, 1-(1,2,3,4,5,6-Hexahydroazepino[4,3-b]indol-8-yl)-4-(5-(trifluoromethyl)pyridin-2-yl)pyridin-2(1H)-one hydrochloride] | 0.0122 µM | 310 to 320 °C (dec.) |
| CCN1CCCc2c(c3ccc(N4CCN(CCc5ccc(F)cc5)CC4=O)cc3n2C)C1.Cl [Example 76, 1-(2-Ethyl-6-methyl-1,2,3,4,5,6-hexahydroazepino[4,3-b]indol-8-yl)-4-(4-fluorophenethyl)piperazin-2-one hydrochloride] | 0.0098 µM | 190 to 205 °C |
| Cl.Cn1c2c(c3ccc(-n4ccc(OCc5ccc(Cl)cc5F)cc4=O)cc31)CNCCC2 [Example 68, 4-(4-Chloro-2-fluorobenzyloxy)-1-(6-methyl-1,2,3,4,5,6-hexahydroazepino[4,3-b]indol-8-yl)pyridin-2(1H)-one hydrochloride] | 0.0082 µM | 191 to 200 °C |
| Cl.Cn1c2c(c3ccc(-n4ccc(OCc5ncc(F)cc5F)cc4=O)cc31)CNCCC2 [Example 106, 4-((3,5-Difluoropyridin-2-yl)methoxy)-1-(6-methyl-1,2,3,4,5,6-hexahydroazepino[4,3-b]indol-8-yl)pyridin-2(1H)-one hydrochloride] | 0.018 µM | 180 to 190 °C |
| Cl.Cn1c2c(c3ccc(-n4ccc(OCc5ncc(Cl)cc5Cl)cc4=O)cc31)CNCCC2 [Example 67, 4-((3,5-Dichloropyridin-2-yl)methoxy)-1-(6-methyl-1,2,3,4,5,6-hexahydroazepino[4,3-b]indol-8-yl)pyridin-2(1H)-one dihydrochloride] | 0.022 µM | 251 to 256 °C |
| CC(C)N1CCc2c(n(C)c3cc(-n4ccc(OCc5ccccc5)cc4=O)ccc23)CC1.Cl [Example 15, 4-(Benzyloxy)-1-(3-isopropyl-6-methyl-1,2,3,4,5,6-hexahydroazepino[4,5-b]indol-8-yl)pyridin-2(1H)-one hydrochloride] | 0.0104 µM | 256 to 258 °C |
| CC(=O)N1CCCc2c(c3ccc(-n4ccc(-c5ccc(C(F)(F)F)nc5)cc4=O)cc3n2C)C1 [Example 62, 1-(2-Acetyl-6-methyl-1,2,3,4,5,6-hexahydroazepino[4,3-b]indol-8-yl)-4-(6-(trifluoromethyl)pyridin-3-yl)pyridin-2(1H)-one] | 0.06 µM | 156 to 162 °C |
| Cl.Cn1c2c(c3ccc(-n4ccc(OCc5ccc(Cl)cn5)cc4=O)cc31)CNCCC2 [Example 63, 4-((5-Chloropyridin-2-yl)methoxy)-1-(6-methyl-1,2,3,4,5,6-hexahydroazepino[4,3-b]indol-8-yl)pyridin-2(1H)-one hydrochloride] | 0.005 µM | 260 to 266 °C |
| Cl.Cn1c2c(c3ccc(-n4ccc(OCc5ccccc5)cc4=O)nc31)CNCCC2 [Example 90, 4-(Benzyloxy)-1-(10-methyl-5,6,7,8,9,10-hexahydropyrido[3′,2′:4,5]pyrrolo[3,2-c]azepin-2-yl)pyridin-2(1H)-one hydrochloride] | 0.0064 µM | 328 to 332 °C |
